# Results from ChEMBL document CHEMBL1201862, “PubChem BioAssay data set” (2004).
# Activity calls are given as the source filed them.
# Experiments:
# [1] = Shn3 3'UTR reporter inhibitors, dose response, cell-based, Clone20 osteoblasts, firefly luciferase, cherry-picked (AID 624132); assay type: functional;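 further: firefly luciferase luminescence from reporter carrying the Shn3 3'UTR in osteoblasts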
# [2] = microbe, parasite or virus in culture; assay type: functional; details: Mycobacterium tuberculosis
# [3] = biological target: FAD-linked sulfhydryl oxidase ALR (Homo sapiens, UniProt P55789); experiment: inhibitors of human ALR sulfhydryl oxidase, dose response, biochemical, H2O2 detection, luminescence, cherry-pick (AID 493248)
# [4] = biological target: T1, Carboxy-terminal domain RNA polymerase II polypeptide A small phosphatase 1 (Homo sapiens, UniProt Q9GZU7); experiment: inhibitors of CTDSP1, concentration-response testing, biochemical assay, absorbance-based, actives from ultra-high-throughput screening (AID 540297); assay type: functional
# T1 sequence (Q9GZU7 whole entry): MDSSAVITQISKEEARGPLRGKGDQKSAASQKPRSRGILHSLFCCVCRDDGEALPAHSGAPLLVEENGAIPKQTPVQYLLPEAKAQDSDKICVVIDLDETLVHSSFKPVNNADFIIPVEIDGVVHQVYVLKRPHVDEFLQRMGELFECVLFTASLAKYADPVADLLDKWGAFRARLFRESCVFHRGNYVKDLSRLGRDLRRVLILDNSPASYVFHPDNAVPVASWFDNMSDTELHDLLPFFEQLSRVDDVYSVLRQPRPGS
# INS1 = experiment: beta cell apoptosis inhibitors, cytokine rescue, dose response, luminescence, retest (AID 449756); assay type: functional, cell-based; details: Rattus norvegicus;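 further: cell death triggered by IL-1 beta plus TNF-alpha plus IFN-gamma mixture; protective hits raise ATP signal compared with cytokine alone wells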
# [5] = test system: Streptococcus sp. 'group A'; experiment: growth inhibition of control SK(-) GAS strain, dose response, counter-screen for streptokinase expression inhibitor project, luminescence, kanamycin, BacTiterGlo, confirmation (AID 1900); assay type: functional, organism-based
# [6] = growth suppression of PTEN-null colon cells, dose response, cell-based, HCT116 PTEN knockout (AID 1047); assay type: functional;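 further: HCT116 colon tumor cells with PTEN knocked out; cells exposed to compound for 60 hours before readout; potency for loss of cell viability measured by luminescence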
# Streptokinase A = biological target: T2, Streptokinase A (Streptococcus pyogenes serotype M1, UniProt P10520); experiment: S. pyogenes streptokinase expression inhibitors, potency, dose response, plasminogen activation absorbance, OD405 (AID 1914); assay type: functional, Streptococcus pyogenes M1 GAS;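 further: secreted streptokinase activity via plasminogen activation per viability signal from cell pellet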
# T2 sequence (P10520 whole entry): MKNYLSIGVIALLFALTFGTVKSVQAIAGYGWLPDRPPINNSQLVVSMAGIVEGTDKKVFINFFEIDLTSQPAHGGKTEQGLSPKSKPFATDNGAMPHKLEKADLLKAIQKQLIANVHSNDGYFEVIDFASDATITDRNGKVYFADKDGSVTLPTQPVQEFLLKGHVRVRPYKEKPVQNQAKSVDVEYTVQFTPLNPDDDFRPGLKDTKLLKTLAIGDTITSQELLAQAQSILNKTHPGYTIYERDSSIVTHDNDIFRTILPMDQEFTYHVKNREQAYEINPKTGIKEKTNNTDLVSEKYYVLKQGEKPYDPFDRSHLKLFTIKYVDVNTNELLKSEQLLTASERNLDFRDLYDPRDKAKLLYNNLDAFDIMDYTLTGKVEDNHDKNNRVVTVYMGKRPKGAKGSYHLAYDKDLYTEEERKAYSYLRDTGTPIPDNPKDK
# [7] = growth suppression of beta-catenin-knockout colon cells, dose response, cell-based, HCT116, human colon tumor (AID 1045); assay type: functional;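 further: HCT116 colon tumor cells with beta catenin knocked out; cells exposed to compound for 60 hours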
# Streptococcus = experiment: Group A Streptococcus viability loss, dose response, counter-screen for streptokinase expression inhibitor project, luminescence, BacTiterGlo (AID 1915); assay type: functional, organism-based;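 further: potency for reduction of bacterial viability or growth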
# [8] = C. albicans growth with fluconazole, confirmation, fluorescence, retest (AID 2467); assay type: functional, cell-based
# [9] = NIH-3T3 fibroblast cytotoxicity, dose response, cytotoxicity control, cell-based, fluorescence, Alamar Blue, secondary assay (AID 2327); assay type: functional;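 further: NIH-3T3 mouse fibroblasts cultured with fluconazole at 8 µg/mL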
# H9c2 = experiment: cells; assay type: functional, cell-based; details: Rattus norvegicus, H9c2, Myocardium;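 further: confirmatory concentration-response retest of ultra-high-throughput screening hits for modulation of myocardial damage; cell death induced by hydrogen peroxide oxidative stress; compound pretreatment for 60 min then peroxide exposure for 2 h; potency is for protecting the cells against peroxide damage rather than for killing them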
# [10] = biological target: T3, Rac GTPase-activating protein 1 (Homo sapiens, UniProt Q9H0H5); experiment: MgcRacGAP GTPase-activating activity inhibitors, confirmation, biochemical, ADP Hunter fluorescence, primary and confirmatory (AID 624330); assay type: functional
# T3 sequence (Q9H0H5 whole entry): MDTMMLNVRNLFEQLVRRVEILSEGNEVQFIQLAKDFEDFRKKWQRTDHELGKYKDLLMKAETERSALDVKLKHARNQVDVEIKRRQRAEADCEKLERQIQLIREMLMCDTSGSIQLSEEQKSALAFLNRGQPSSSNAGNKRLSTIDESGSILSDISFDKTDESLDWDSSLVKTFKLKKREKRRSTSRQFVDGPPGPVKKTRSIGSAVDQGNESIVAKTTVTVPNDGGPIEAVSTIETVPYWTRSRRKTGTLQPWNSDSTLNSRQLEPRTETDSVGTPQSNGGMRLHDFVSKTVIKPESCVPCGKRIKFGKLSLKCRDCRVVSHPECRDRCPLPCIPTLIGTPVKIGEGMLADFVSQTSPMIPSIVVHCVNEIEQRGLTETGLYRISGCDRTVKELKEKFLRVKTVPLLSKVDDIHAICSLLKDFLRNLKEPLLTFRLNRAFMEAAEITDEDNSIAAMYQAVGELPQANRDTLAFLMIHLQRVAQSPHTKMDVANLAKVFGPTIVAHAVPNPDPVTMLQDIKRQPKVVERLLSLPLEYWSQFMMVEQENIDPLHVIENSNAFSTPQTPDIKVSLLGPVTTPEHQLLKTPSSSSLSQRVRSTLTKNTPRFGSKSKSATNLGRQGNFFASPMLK
# [11] = cytotoxicity toward NIH3T3 fibroblasts, dose response, counter-screen, cell-based, ATP luminescence, mouse fibroblasts (AID 2010); assay type: functional;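 further: cells exposed to compound for about 90 hours before reading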
# [12] = inhibitors of intracellular T. cruzi replication, confirmation, NIH3T3 host cells, beta-gal luminescence (AID 2044); assay type: functional, cell-based;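 further: intracellular parasites grown in NIH/3T3 mouse fibroblasts as host cells; luminescent beta-galactosidase reporter signal from transgenic T. cruzi replicating inside host cells; inhibitors lower the luminescence signal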
# [13] = Luminescence Cell-Based Dose Retest to Confirm Inhibitors of Cancer Stem Cells. [Related pubchem assays (depositor defined):AID2717, AID2721]; assay type: functional; details: Homo sapiens
# H4 = experiment: Luminescence Cell-Based Dose Response HTS to Identify Activators of 5'UTR Stem-Loop Driven Prion Protein mRNA Translation in H4 Neuroglioblastoma Cells. [Related pubchem assays: 1829 (Project Summary), 1814 (Primary HTS)]; assay type: functional; details: Homo sapiens
# [14] = biological target: T4, Corticotropin-releasing factor receptor 2/Corticotropin-releasing factor-binding protein (Homo sapiens, UniProt P24387+Q13324); experiment: activators of CRF receptor 2 with binding protein – uHTS hits, confirmation (AID 602473); assay type: functional; details: read-out: EC50_Mean
# T4 sequence (Q13324 whole entry): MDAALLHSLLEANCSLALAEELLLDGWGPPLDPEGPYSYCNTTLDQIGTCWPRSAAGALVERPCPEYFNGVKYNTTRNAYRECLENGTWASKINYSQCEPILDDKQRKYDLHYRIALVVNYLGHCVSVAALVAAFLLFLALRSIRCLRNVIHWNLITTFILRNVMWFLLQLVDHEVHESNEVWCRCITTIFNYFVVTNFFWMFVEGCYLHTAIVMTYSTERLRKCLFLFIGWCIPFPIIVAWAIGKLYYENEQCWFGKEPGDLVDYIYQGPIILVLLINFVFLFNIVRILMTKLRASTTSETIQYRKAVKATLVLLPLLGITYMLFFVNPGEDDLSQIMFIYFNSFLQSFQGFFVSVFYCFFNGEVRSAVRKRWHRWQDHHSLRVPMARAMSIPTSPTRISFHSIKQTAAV
# T4 sequence (P24387 whole entry): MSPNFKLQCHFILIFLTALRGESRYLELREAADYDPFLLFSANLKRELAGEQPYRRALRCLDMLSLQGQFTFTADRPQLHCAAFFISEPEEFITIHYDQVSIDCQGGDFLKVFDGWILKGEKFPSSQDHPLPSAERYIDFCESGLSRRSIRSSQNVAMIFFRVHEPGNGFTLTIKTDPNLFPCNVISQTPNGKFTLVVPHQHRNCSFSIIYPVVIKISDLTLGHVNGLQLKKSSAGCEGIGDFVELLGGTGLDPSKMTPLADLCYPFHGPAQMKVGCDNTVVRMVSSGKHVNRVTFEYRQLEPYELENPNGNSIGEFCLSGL
# [15] = Luminescence Cell-Based Dose Response HTS to Identify Activators of Luciferase Translation or Activity in H4 […] Cells. [Related pubchem assays: 1829 (Project Summary), 1814 (Primary HTS)]; assay type: functional
# [16] = biological target: T4, Corticotropin-releasing factor receptor 2/Corticotropin-releasing factor-binding protein; experiment: Dose Response confirmation of uHTS hits for small molecule antagonists of the CRF-binding protein and CRF-R2 receptor complex.; assay type: functional; details: read-out: IC50_Mean
# [17] = Luminescence Cell-Based Dose Confirmation HTS to Identify Activators of 5'UTR Stem-Loop Driven Alpha-Synuclein mRNA Translation in H4 Neuroglioblastoma Cells. [Related pubchem assays: 1829 (Project Summary), 1814 (Primary HTS)]; assay type: functional
# Chain of FAD-linked sulfhydryl oxidase ALR (P55789 whole entry, the tested form may be a part): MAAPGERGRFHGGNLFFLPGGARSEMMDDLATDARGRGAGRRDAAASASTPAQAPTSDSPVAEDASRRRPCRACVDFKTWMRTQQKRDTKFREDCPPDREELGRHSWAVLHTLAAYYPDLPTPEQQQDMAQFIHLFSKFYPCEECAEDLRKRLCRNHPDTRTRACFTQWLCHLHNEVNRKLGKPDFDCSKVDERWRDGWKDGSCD
structure (smiles),measurement,setting,value
NS(=O)(=O)c1ccc(CNC(=S)NC(=O)c2ccco2)cc1,AC50,[1],22.9 µM (active)
CCOC(=O)N1CCC(N2Cc3cccc(C(=O)Nc4ccc(N(CC)CC)cc4C)c3C2=O)CC1,CC50,[2],> 40 µM (active)
S=C(Nc1ccc(Cl)cc1)NC1CC2CCC(C1)N2Cc1ccccc1 (stereo unspecified),CC50,[2],> 40 µM (active)
Cc1ccc(NC2CCCN(C(=O)c3ccc(C)c(N4CCNC4=O)c3)C2)cc1C (stereo unspecified),AC50,[3],3.32 µM (active)
CC(=O)OCC1=C(C(=O)OC(C)(C)C)N2C(=O)[C@@H](NC(=O)Cc3ccccc3)[C@H]2SC1,IC50,[4],8.61 µM (active)
c1ccc2c(c1)ncn2CCCOc1ccc2c(c1)CCC2,AC50,INS1,7.64 µM (active)
same,EC50,[5],22.4 µM (active)
same,EC50,[6],30.5 µM (active)
same,EC50,Streptokinase A,> 150 µM (not active)
same,EC50,[7],21.6 µM (active)
same,EC50,Streptococcus,> 150 µM (not active)
CCCc1cc(=O)oc2cc(OCC(=O)NC(Cc3c[nH]c4ccc(O)cc34)C(=O)O)c(Cl)cc12 (stereo unspecified),IC50,[4],32.7 µM (active)
Cc1ccn2c(=O)nc(SCC(=O)NCc3ccc4c(c3)OCO4)nc2c1,IC50,[4],10.5 µM (active)
COc1ccc(C2Nc3ccccc3C(=O)N2O)cc1OC (stereo unspecified),EC50,[8],> 38 µM (not active)
same,EC50,[9],> 150 µM (inactive)
CCCCC(=O)OCC(=O)N1N=C(c2c[nH]c3ccccc23)C(O)C1c1ccc(OC)cc1 (stereo unspecified),CC50,[2],> 40 µM (active)
CCOC(=O)C1(C)Oc2ccccc2C(C(=O)OC)=C1C(=O)OC (stereo unspecified),IC50,[4],23.6 µM (active)
Cc1ccc(Nc2nnc(C3C(=O)N(C)C4(C)CC3c3cc(Br)ccc3O4)s2)cc1 (stereo unspecified),EC50,[8],4.45 µM (active)
same,EC50,[9],19.8 µM (active)
Cc1ccc2nc(O)c(CN(Cc3ccco3)S(=O)(=O)c3c(C)ccc4nsnc34)cc2c1,EC50,[6],13.2 µM (active)
same,IC50,H9c2,8.78 µM (active)
same,EC50,[7],14.8 µM (active)
Cc1cccc(C(=O)NC2CCN(C(=O)NCc3ccccc3)CC2)c1,IC50,[4],12.1 µM (active)
CC1=CC(C)(C)n2c(O)c(C3=NC(=S)NC3=O)c3cc(OC(=O)c4cccc5ccccc45)cc1c32,EC50,[6],19.6 µM (active)
same,EC50,[7],24 µM (active)
COc1cccc(OC)c1C(=O)N1CCN=C1SCc1cccnc1,AC50,[3],0.043 µM (active)
N#C/C=C\Oc1ccc(Cl)cc1N,CC50,[2],> 40 µM (active)
same,IC50,[10],218 µM (active)
N=c1c2c(ncn1CCN1CCOCC1)Oc1ccc3ccccc3c1C2c1ccccc1 (stereo unspecified),EC50,[6],16.5 µM (active)
same,EC50,[7],15.3 µM (active)
O=C(COC(=O)c1ccc(Br)o1)NCc1ccco1,IC50,[4],9.79 µM (active)
CN=C(S)N=CNOCc1c(Cl)cccc1Cl,CC50,[2],> 40 µM (active)
Cc1cccc(OCCNc2cc(N3CCN(C)CC3)ccc2[N+](=O)[O-])c1,EC50,[11],> 60 µM (not active)
same,EC50,[12],0.495 µM (active)
same,EC50,[6],19.8 µM (active)
same,EC50,[7],86.1 µM (active)
same,AC50,[13],1.47 µM (active)
CN1C(c2ccc(F)cc2)=CS/C1=C(/C#N)c1nnc(N2CCOCC2)n1-c1ccccc1,EC50,H4,> 120 µM (not active)
same,EC50,[14],> 53 µM (inactive)
same,EC50,[15],> 120 µM (not active)
same,IC50,[16],> 47.1 µM (inactive)
same,EC50,[17],> 120 µM (not active)
Cc1cccc(/C=N/n2c(S)nnc2-c2ccccc2)c1O,AC50,[3],3.82 µM (active)
CC(=O)Nc1ccccc1N(CC(O)Cn1c2ccccc2c2ccccc21)S(=O)(=O)c1ccc(C)cc1 (stereo unspecified),EC50,[6],13.5 µM (active)
same,EC50,[7],17.1 µM (active)
CCn1c(=O)c(CCC(=O)N2CCN(c3ccccn3)CC2)c(C)c2c(C)nn(-c3cccc(C)c3)c21,EC50,[11],> 60 µM (not active)
same,CC50,[2],> 40 µM (active)
same,EC50,[12],1.59 µM (active)
Sc1nnc(-c2ccc(Cl)cc2Cl)n1-c1ccccc1,EC50,H4,14.9 µM (active)
same,EC50,[15],56.4 µM (active)
same,EC50,[17],15.5 µM (active)
C=CCn1c(=N)n(CC(=O)c2cccc([N+](=O)[O-])c2)c2ccccc21,EC50,[8],> 38 µM (not active)
same,EC50,[9],134 µM (active)
Cc1occc1C(=O)NCCCCc1ccccc1,AC50,[3],0.488 µM (active)
O=C(CN1C(=O)S/C(=C\c2ccc(O)c([N+](=O)[O-])c2)C1=O)Nc1ccc(N2CCOCC2)cc1,IC50,[4],2.65 µM (active)
COc1cc(C(=O)c2ccccc2)c(OC)cc1C(=O)Nc1ccc(O)cc1,AC50,[3],0.039 µM (active)
